{"source": "patent US12280060B2", "about": "“Methods of treating cancer using neuronal activity inhibiting agents” (Washington University, priority 2021, dated 2025)", "key": {"neurofibromas": {"system": "neurofibromas", "details": "cited from earlier work"}, "RAS": {"system": "RAS", "assay_type": "cell-based, mouse"}, "Nf1+/neo RGC neurons": {"system": "Nf1+/neo RGC neurons", "assay_type": "cell-based, mouse"}, "[1]": {"system": "Nf1+/neo hippocampal neurons", "assay_type": "cell-based, mouse"}, "Nf1+/neo DRG neurons": {"system": "Nf1+/neo DRG neurons", "assay_type": "cell-based, mouse"}, "midkine [2]": {"system": "midkine", "assay_type": "cell-based, mouse"}, "midkine [3]": {"system": "midkine", "assay_type": "cell-based, mouse", "remark": "listed apart in the source"}, "Col1a2 [4]": {"system": "Col1a2", "assay_type": "cell-based, mouse"}, "[5]": {"system": "Nf1f/neo; hGFAP-Cre (Nf1-OPG) mice", "assay": "In vivo Nf1-OPG (optic pathway glioma) progression", "design": "species or system mouse", "details": "for optic nerve proliferation (% Ki67+ cells), fold decrease: mouse, in vivo"}, "[6]": {"system": "NF1-pNFs in athymic nude mice", "assay": "In vivo pNF progression (Nf1-/- DRG-NSCs implanted in sciatic nerve)", "design": "species or system mouse"}, "[7]": {"system": "Nf1+/neo and Nf1-OPG mice", "assay": "In vivo treatment: Mdk/midkine, Nlgn3, Adam10 expression in retinae and optic nerves", "design": "species or system mouse", "details": "for effect on midkine expression in the RGC layer of retinae: 12-week-old Nf1-OPG mice, LTR or lovastatin in vivo; for effect on Nlgn3 RNA expression in vivo: retinae / optic nerves of Nf1+/neo or Nf1-OPG mice", "experimental": "Supplementary Table 2) and TaqMan Fast Advanced Master Mix (Applied Biosystems) according to the manufacturer's instructions. All reactions were performed using the Bio-Rad CFX96 Real-Time PCR system equipped with Bio-Rad CFX Manager 3.1 software. Gene expression levels of technical replicates were estimated by ΔΔCt method using GAPDH or Gapdh (see e.g., TABLE 2) as reference genes. In total, 17 Nf1^flox/neo; GFAP-Cre (Nf1-OPG) mice were intraperitoneally administered vehicle (saline in 1% methylcellulose; n=9) or 25 mg/Kg body weight lamotrigine (Selleckchem; n=8) from four to six weeks of age, three times a week. The mice were then aged to 12 weeks for optic nerve and RGC analysis. […] The mice were analyzed at 12 weeks of age. […] These mice were analyzed at 24 weeks of age. […] These mice were analyzed at 12 weeks of age. For pNF analyses, Nf1^−/− DRG-NSCs were implanted in sciatic nerves of 8-week-old athymic nude mice as previously described. Briefly, the mice underwent surgery to create a pocket by displacing the quadriceps muscle and exposing their sciatic nerve. In all, 1×10^6 Nf1^−/− DRG-NSCs were implanted in the pocket around the sciatic nerve, such that the cells could be in direct contact with the nerve before the muscle and skin were sutured. Following recovery from the surgery, the mice were intraperitoneally administered vehicle (saline in 1% methylcellulose; n=5) or 25 mg/kg body weight lamotrigine (Selleckchem; n=5) three times a week for 6 weeks prior to histological analysis."}, "Nf1-mutant neurons": {"system": "Nf1-mutant neurons", "assay": "Excitability of Nf1-mutant neurons", "assay_type": "cell-based", "experimental": "(§1) Nf1-mutant neurons were treated with the antiepileptic drug rufinamide. Treatment with rufinamide reduced Midkine expression (see e.g., FIG. 47) and neuronal excitability (see e.g., FIG. 48)."}, "Midkine [8]": {"system": "Midkine", "assay": "Mdk (Midkine transcript) levels in Nf1-mutant neurons", "assay_type": "cell-based", "experimental": "as §1"}, "COL1A2 [9]": {"system": "COL1A2", "assay": "COL1A2 RNA expression in human shNF1 Schwann cells", "assay_type": "cell-based", "details": "COL1A2 treatment"}, "Col1a2 [10]": {"system": "Col1a2", "assay": "COL1A2 RNA expression in mouse Nf1-/- DRG-NSCs", "assay_type": "cell-based", "details": "COL1A2 treatment"}, "Nf1-/- DRG-NSCs": {"system": "Nf1-/- DRG-NSCs", "assay": "Nf1-/- DRG-NSC proliferation (Ki67+)", "assay_type": "cell-based, mouse"}, "[11]": {"system": "human shNF1 Schwann cells", "assay": "Human shNF1 Schwann cell proliferation (Ki67+)", "assay_type": "cell-based", "details": "shNF1 SCs"}, "[12]": {"system": "WT and Nf1+/1809 RGC neurons", "assay_type": "cell-based, mouse"}, "[13]": {"details": "Nf1-OPG mice, LTR 25 mg/kg/day intraperitoneally, vs vehicle"}, "[14]": {"details": "Nf1-OPG mice, lamotrigine intraperitoneal, 3 months of age, vs vehicle"}, "[15]": {"details": "25 mg/kg intraperitoneal three times a week for 6 weeks"}, "[16]": {"details": "25 mg/kg intraperitoneal three times a week for 6 weeks, listed as LTR"}}, "note": "“Also recorded” adds a separate entry of the source."}
{"compound": "Cc1ccc(=O)n(-c2ccccc2)c1", "note": "[Pirfenidone]", "values": [{"measurement": "efficacy in human clinical trials", "setting": "neurofibromas", "result": "no efficacy"}]}
{"compound": "NC1=N[C@H](O)[C@H]2[C@H]3O[C@]4(O)O[C@@H]([C@@H](O)[C@@]2(N1)[C@@H]4O)[C@]3(O)CO", "note": "[TTX, tetrodotoxin]", "values": [{"measurement": "effect on RAS activity (RAS-GTP)", "setting": "RAS", "result": "reduced"}, {"measurement": "effect on AP firing rate / RGC activity", "setting": "Nf1+/neo RGC neurons", "result": "reduced"}, {"measurement": "neuronal activity (AP firing rate), fold decrease", "setting": "Nf1+/neo RGC neurons", "result": "> 80", "unit": "fold"}, {"measurement": "effect on AP firing rates", "setting": "[1]", "result": "reduced"}, {"measurement": "effect on DRG neuron AP firing rate / neuronal activity", "setting": "Nf1+/neo DRG neurons", "result": "reduce"}, {"measurement": "effect on midkine expression / secretion", "setting": "midkine [2]", "result": "reduced"}, {"measurement": "effect on midkine secretion / expression", "setting": "midkine [3]", "result": "reduced"}, {"measurement": "midkine levels, fold decrease", "setting": "midkine [3]", "result": 1.9, "unit": "fold"}, {"measurement": "Col1a2 secretion / expression, fold reduction", "setting": "Col1a2 [4]", "result": 3.6, "unit": "fold"}, {"measurement": "reduction of Col1a2 secretion", "setting": "Col1a2 [4]", "result": 73, "unit": "%"}]}
{"compound": "Nc1nnc(-c2cccc(Cl)c2Cl)c(N)n1", "note": "[lamotrigine]", "values": [{"measurement": "effect on RAS activity (RAS-GTP)", "setting": "RAS", "result": "reduced"}, {"measurement": "effect on AP firing rate / RGC activity", "setting": "Nf1+/neo RGC neurons", "result": "reduced"}, {"measurement": "firing rates, % decrease", "setting": "Nf1+/neo RGC neurons", "result": "> 80", "unit": "%"}, {"measurement": "effect on AP firing rates", "setting": "[1]", "result": "reduced"}, {"measurement": "effect on DRG neuron AP firing rate / neuronal activity", "setting": "Nf1+/neo DRG neurons", "result": "reduce"}, {"measurement": "effect on midkine expression / secretion", "setting": "midkine [2]", "result": "reduced"}, {"measurement": "effect on midkine secretion / expression", "setting": "midkine [3]", "result": "reduced"}, {"measurement": "midkine levels, fold decrease", "setting": "midkine [3]", "result": 2.2, "unit": "fold"}, {"measurement": "Col1a2 secretion / expression, fold reduction", "setting": "Col1a2 [4]", "result": 1.8, "unit": "fold"}, {"measurement": "reduction of Col1a2 secretion", "setting": "Col1a2 [4]", "result": 47, "unit": "%"}, {"measurement": "effect on CD3+ cells in optic nerves", "setting": "[5]; [13]", "result": "reduced"}, {"measurement": "effect on Iba1+ cells in optic nerves", "setting": "[5]; [13]", "result": "reduced"}, {"measurement": "effect on Ki67+ cells in optic nerves", "setting": "[5]; [13]", "result": "reduced"}, {"measurement": "effect on OPG development", "setting": "[5]; Nf1-OPG mice, at 3 months of age", "result": "reduced"}, {"measurement": "effect on optic nerve volumes", "setting": "[5]; Nf1-OPG mice, lamotrigine intraperitoneal, 3 months of age", "result": "did not decrease"}, {"measurement": "T-cell (CD3+ cells) content, fold decrease", "setting": "[5]; [14]", "result": 1.6, "unit": "fold"}, {"measurement": "microglia (% Iba1+ cells) content, fold decrease", "setting": "[5]; [14]", "result": 1.7, "unit": "fold"}, {"measurement": "optic nerve volumes relative to WT controls, fold increased", "setting": "[5]; lamotrigine-treated Nf1-OPG mice", "result": 1.5, "unit": "fold"}, {"measurement": "optic nerve proliferation (% Ki67+ cells), fold decrease", "setting": "[5]", "result": 1.5, "unit": "fold"}, {"measurement": "optic nerve proliferation (% Ki67+ cells), fold decrease", "setting": "[5]; ip", "result": 5.7, "unit": "fold"}, {"measurement": "optic nerve proliferation (% Ki67+ cells), fold decrease", "setting": "[5]; po, 10 mg/kg/day", "result": 4, "unit": "fold"}, {"measurement": "microglia (% Iba1+ cells) content, fold decrease", "setting": "[5]; treatment from 4-8 weeks, 6 month-old Nf1-OPG mice, vs vehicle", "result": 1.4, "unit": "fold"}, {"measurement": "effect on Col1a2 production / immunoreactivity within the tumors", "setting": "[6]; [15]", "result": "reduced"}, {"measurement": "effect on neuronal histology (H&E)", "setting": "[6]; [15]", "result": "partly restored"}, {"measurement": "effect on pNF progression in vivo", "setting": "[6]; [15]", "result": "decreases"}, {"measurement": "effect on pNF size", "setting": "[6]; [15]", "result": "reduced"}, {"measurement": "effect on Col1a2 production / immunoreactivity within the tumors", "setting": "[6]; [16]", "result": "decreases"}, {"measurement": "effect on neuronal histology (H&E)", "setting": "[6]; [16]", "result": "partly restores"}, {"measurement": "effect on pNF size", "setting": "[6]; [16]", "result": "reduces"}, {"measurement": "effect on proliferation (Ki67+ cells) within the tumors", "setting": "[6]; mouse, in vivo", "result": "reduces"}, {"measurement": "effect on midkine expression in the RGC layer of retinae", "setting": "[7]", "result": "reduced"}, {"measurement": "effect on Mdk transcript relative expression in retinae", "setting": "[7]; Nf1+/neo mice, LTR in vivo", "result": "decreased"}, {"measurement": "Mdk RNA and protein levels in retinae, fold decrease", "setting": "[7]; Nf1+/neo retinae, lamotrigine in vivo, relative to vehicle", "result": "1.9-2.3 fold"}, {"measurement": "Mdk levels in optic nerves, fold decrease", "setting": "[7]; optic nerves, lamotrigine in vivo, relative to vehicle", "result": "1.7-2 fold"}, {"measurement": "effect on Adam10 RNA expression in vivo", "setting": "[7]; retinae / optic nerves of 12 week-old Nf1+/neo or Nf1-OPG mice, lamotrigine in vivo", "result": "did not change; also recorded: unchanged"}, {"measurement": "effect on Nlgn3 RNA expression in vivo", "setting": "[7]; lamotrigine in vivo", "result": "did not change"}, {"measurement": "effect on Nlgn3 RNA expression in vivo", "setting": "[7]; lamotrigine in vivo, listed as LTR", "result": "unaltered"}]}
{"compound": "CC[C@H](C)C(=O)O[C@H]1C[C@@H](C)C=C2C=C[C@H](C)[C@H](CC[C@@H]3C[C@@H](O)CC(=O)O3)[C@H]21", "note": "[lovastatin]", "values": [{"measurement": "effect on midkine expression in the RGC layer of retinae", "setting": "[7]", "result": "decreased; also recorded: reduced"}]}
{"compound": "NC(=O)c1cn(Cc2c(F)cccc2F)nn1", "note": "[rufinamide]", "values": [{"measurement": "effect on neuronal excitability", "setting": "Nf1-mutant neurons", "result": "reduces"}, {"measurement": "effect on Mdk (Midkine transcript) levels / Midkine expression", "setting": "Midkine [8]", "result": "reduces"}]}
{"compound": "COL1A2: collagen-1A2; neurofibroma mitogen produced by peripheral neurons, applied to Schwann cells and DRG-NSCs", "values": [{"measurement": "effect on COL1A2 RNA expression", "setting": "COL1A2 [9]", "result": "increased"}, {"measurement": "effect on COL1A2 RNA expression", "setting": "Col1a2 [10]", "result": "increased"}, {"measurement": "proliferation, fold increase in Ki67+ cells", "setting": "Nf1-/- DRG-NSCs; COL1A2 12.5 μg/mL", "result": "2.5-2.9 fold"}, {"measurement": "proliferation, fold increase in Ki67+ cells", "setting": "[11]; COL1A2 12.5 μg/mL", "result": "2.5-2.9 fold"}]}
{"compound": "ZD7288", "values": [{"measurement": "effect on midkine expression / secretion", "setting": "midkine [2]", "result": "increases"}, {"measurement": "RGC neuron midkine production, fold increase", "setting": "midkine [3]", "result": "14-15 fold"}, {"measurement": "effect on midkine production", "setting": "midkine [3]", "result": "increased"}, {"measurement": "DRG Col1a2 secretion, fold increase", "setting": "Col1a2 [4]", "result": "2-2.8 fold"}, {"measurement": "effect on Col1a2 secretion", "setting": "Col1a2 [4]", "result": "increases"}, {"measurement": "effect on Adam10 transcript expression", "setting": "[12]", "result": "did not alter"}, {"measurement": "effect on Nlgn3 transcript expression", "setting": "[12]", "result": "did not alter"}]}
{"compound": "collagenase", "values": [{"measurement": "effect on the increase in proliferation conferred by NF1-mutant sensory neuron CM or COL1A2", "setting": "Nf1-/- DRG-NSCs; collagenase", "result": "completely abrogated"}, {"measurement": "effect on the increase in proliferation conferred by NF1-mutant sensory neuron CM or COL1A2", "setting": "[11]; collagenase", "result": "completely abrogated"}]}
